Values joined by “and” are separate entries in the source; they are usually repeats but may differ in a detail not shown here. Equal entries are not always repeated.
Experiments:
[1] = target: T1, CYP2D6 (Homo sapiens, UniProt P10635); assay: Reversible inhibition of recombinant CYP2D6; type: in vitro ADME
T1 construct: purchased BD Gentest (Woburn, MA, USA); host or cells: baculovirus expression system
Experimental: (§1) The assay for reversible inhibition was conducted in a total volume of 200 μL in 96-well microplates. The assay conditions, enzyme and substrate concentrations were similar as reported earlier ([Crespi et al., 1997]; [Manda et al., 2013]). Test samples or positive controls were serially diluted in a solution (100 μL) of cofactors mix, control protein (0.05 mg of protein/mL), and G-6-PDH to achieve six concentrations (100-0.4 μM or μg/mL). Initial readings were taken to record any inherent fluorescence and the plates were incubated at 37°C for 10 min. Reaction was initiated by the addition of enzyme substrate mixture (100 μL) followed by incubation for 15, 30, or 45 min. The reaction was terminated by the addition of 75 μL of ice cold acetonitrile/0.5 M Tris base (80:20). Fluorescence was measured on Spectramax M5 plate reader (Molecular Devices, Sunnyvale, CA, USA) at specified excitation and emission wavelengths for each substrate. IC50 values (co-incubation assay) were obtained from concentration-response curves generated by plotting concentration versus % inhibition.

[2] = target: T2, CYP3A4 (Homo sapiens, UniProt P08684); assay: Reversible inhibition (co-incubation assay) of recombinant CYP3A4, fluorescent substrate; type: in vitro ADME
T2 construct: purchased BD Gentest (Woburn, MA, USA); host or cells: baculovirus expression system
T2 sequence (P08684 whole entry): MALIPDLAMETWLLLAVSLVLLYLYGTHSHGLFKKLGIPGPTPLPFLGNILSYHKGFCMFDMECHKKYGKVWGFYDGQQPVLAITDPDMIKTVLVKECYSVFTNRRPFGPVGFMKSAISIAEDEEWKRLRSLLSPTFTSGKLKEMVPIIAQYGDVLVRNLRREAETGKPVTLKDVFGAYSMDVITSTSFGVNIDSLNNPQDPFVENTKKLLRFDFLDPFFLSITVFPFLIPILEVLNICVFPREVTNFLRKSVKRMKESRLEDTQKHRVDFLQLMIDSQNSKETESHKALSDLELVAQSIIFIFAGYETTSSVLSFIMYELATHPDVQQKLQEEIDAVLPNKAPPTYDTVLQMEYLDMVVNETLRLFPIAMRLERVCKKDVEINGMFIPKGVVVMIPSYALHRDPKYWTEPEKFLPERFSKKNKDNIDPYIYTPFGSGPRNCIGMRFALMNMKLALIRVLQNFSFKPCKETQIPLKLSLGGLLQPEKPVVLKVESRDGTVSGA
Experimental: as §1, with “The assay conditions, enzyme and substrate concentrations were similar as reported earlier ([Crespi et al., 1997]; [Manda et al., 2013]).” left out

[3] = target: T3, CYP2C9 (Homo sapiens, UniProt P11712); assay: Time dependent inhibition (pre-incubation assay) of recombinant CYP2C9; type: in vitro ADME; conditions: recombinant CYP2C9, 30 min pre-incubation
T3 construct: purchased BD Gentest (Woburn, MA, USA); host or cells: baculovirus expression system
T3 sequence (P11712 whole entry): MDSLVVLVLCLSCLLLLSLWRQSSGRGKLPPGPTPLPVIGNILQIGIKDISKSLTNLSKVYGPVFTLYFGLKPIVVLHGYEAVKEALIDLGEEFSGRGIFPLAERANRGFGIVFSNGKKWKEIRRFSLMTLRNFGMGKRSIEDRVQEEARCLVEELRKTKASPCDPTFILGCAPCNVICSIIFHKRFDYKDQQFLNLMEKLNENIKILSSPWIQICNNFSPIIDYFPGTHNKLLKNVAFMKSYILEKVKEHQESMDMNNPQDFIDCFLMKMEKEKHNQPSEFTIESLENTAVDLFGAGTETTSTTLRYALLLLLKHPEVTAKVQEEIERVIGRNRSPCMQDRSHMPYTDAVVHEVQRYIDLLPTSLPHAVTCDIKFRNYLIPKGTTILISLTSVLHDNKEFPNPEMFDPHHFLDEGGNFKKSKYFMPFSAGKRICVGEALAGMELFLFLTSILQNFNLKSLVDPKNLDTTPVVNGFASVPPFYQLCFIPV
Experimental: (§2) Time dependent inhibition (TDI) of CYPs was measured as described earlier by [Sekiguchi et al. (2009)]. The reaction mixture (180–190 μL), consisting of test sample, recombinant enzyme, control protein (0.05 mg of protein/mL), cofactor mix, G-6-PDH, and 50 mM potassium phosphate buffer (pH 7.4) was pre-incubated for 30 min followed by addition of respective fluorescent substrates (10–20 μL) and further incubation for 15 (CYP1A2), 30 (CYP3A4), or 45 (CYP 2C9 and 2C19) min. The reaction was terminated by addition of 75 μL of ice cold acetonitrile/0.5 M Tris base (80:20) and fluorescence was measured as above. IC50 values (pre-incubation assay) were obtained as above. The shift in the concentration-response curve was calculated as the ratio of IC50 (co-incubation)/IC50 (pre-incubation).

[4] = target: T4, CYP2C19 (Homo sapiens, UniProt P33261); assay: Time dependent inhibition (pre-incubation assay) of recombinant CYP2C19; type: in vitro ADME; conditions: recombinant CYP2C19, 30 min pre-incubation
T4 construct: purchased BD Gentest (Woburn, MA, USA); host or cells: baculovirus expression system
T4 sequence (P33261 whole entry): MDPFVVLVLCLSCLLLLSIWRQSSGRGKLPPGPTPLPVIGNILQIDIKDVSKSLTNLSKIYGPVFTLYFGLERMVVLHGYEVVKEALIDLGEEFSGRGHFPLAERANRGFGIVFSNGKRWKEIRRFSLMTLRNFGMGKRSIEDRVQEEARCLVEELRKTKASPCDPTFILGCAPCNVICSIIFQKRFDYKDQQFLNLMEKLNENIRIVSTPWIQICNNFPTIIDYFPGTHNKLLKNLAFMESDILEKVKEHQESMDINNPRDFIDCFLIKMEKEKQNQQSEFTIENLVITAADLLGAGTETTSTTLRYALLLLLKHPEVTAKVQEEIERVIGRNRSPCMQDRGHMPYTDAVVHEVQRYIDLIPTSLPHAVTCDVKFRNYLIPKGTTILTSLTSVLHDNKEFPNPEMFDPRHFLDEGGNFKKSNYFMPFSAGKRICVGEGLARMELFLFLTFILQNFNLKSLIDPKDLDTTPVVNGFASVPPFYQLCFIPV
Experimental: as §2

[5] = target: T5, PXR (Homo sapiens, UniProt O75469); assay: PXR activation, luciferase reporter gene assay in HepG2 cells; type: cell-based
T5 construct: expressed in transfected cells; host or cells: HepG2 cells, transient electroporation with pSG5-PXR and the CYP3A4-PXRE-LUC reporter
T5 sequence (O75469 1-434): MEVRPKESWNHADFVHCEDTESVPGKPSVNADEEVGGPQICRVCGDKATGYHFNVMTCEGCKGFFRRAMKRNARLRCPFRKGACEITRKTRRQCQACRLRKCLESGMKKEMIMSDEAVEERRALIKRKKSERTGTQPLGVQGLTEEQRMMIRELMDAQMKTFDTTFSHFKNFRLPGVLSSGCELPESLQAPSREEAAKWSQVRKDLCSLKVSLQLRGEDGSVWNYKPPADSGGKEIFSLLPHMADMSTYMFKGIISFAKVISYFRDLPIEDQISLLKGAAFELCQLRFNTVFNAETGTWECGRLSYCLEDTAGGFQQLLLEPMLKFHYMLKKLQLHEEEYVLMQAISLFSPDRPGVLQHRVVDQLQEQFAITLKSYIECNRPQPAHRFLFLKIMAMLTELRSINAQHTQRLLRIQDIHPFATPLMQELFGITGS
Experimental: The modulation of PXR activity by test samples was determined in HepG2 cells transiently transfected with pSG5-PXR (25 μg) and PCR5 plasmid DNA (25 μg) by electroporation at 180 V, 1 pulse for 70 msec. The cells were plated in 96-well plates at a density of 50,000 cells per well. After 24 h, test samples and drug controls were added at various concentrations. After additional 24 hour incubation, the media was aspirated and 40 μL of luciferase reagent (Promega Corporation, Madison, WI, USA) was added to each well and luminescence was measured on Spectramax M5 plate reader (Molecular Devices, Sunnyvale, CA, USA). The fold induction in luciferase activity in the treated cells was calculated in comparison to vehicle treated cells.

T1 sequence (P10635 whole entry): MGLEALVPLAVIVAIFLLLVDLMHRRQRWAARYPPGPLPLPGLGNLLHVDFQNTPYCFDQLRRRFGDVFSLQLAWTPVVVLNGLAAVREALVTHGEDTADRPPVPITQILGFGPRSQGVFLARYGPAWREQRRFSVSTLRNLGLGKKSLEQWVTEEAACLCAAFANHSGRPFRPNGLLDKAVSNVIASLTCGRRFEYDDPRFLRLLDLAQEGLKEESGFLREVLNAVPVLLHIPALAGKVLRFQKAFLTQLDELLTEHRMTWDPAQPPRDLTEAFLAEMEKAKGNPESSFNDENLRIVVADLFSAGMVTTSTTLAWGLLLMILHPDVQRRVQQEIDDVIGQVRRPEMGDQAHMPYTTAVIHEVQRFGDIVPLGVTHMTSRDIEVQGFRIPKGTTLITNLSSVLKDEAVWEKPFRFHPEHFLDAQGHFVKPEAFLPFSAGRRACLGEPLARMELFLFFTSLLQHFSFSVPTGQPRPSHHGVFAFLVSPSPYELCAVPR

Row | SMILES | IC50 [1] [µM] | IC50 [2] | IC50 [3] [µM] | IC50 [4] [µM] | Induction of PXR activity ([5]; HepG2, 30 μM (highest tested concentration), vs vehicle) [fold] | Induction of PXR activity at lower concentration ([5]; HepG2, below 30 μM)
1 | CCCC/C=C\CCCCCCCCCc1cc(O)cc(O)c1 [5-[10(Z)-pentadecenyl]resorcinol] | 87.9 | 4.1 µM and 4.4 µM | 8 ± 1.4 | 3.2 ± 0.2 | – | –
2 | CCCC/C=C\CCCCCCCCCc1cc(O)cc(OC)c1 [Belamcandol B] | 105 | 18 µM and 45.1 µM | 23 ± 2.1 | 3.2 ± 0.3 | – | –
3 | CCCC/C=C\CCCCCCCCCC1=C(c2c(O)cc(O)cc2CCCCCCCCC/C=C\CCCC)C(=O)C=C(OC)C1=O [Demethylbelamcandaquinone B] | 33.2 | 69 µM and 67.9 µM | 22 ± 1.8 | 11 ± 0.7 | – | –
4 | CCCC/C=C\CCCCCCCCCc1cc(O)cc2oc3cc(OC)c(O)c(CCCCCCCCC/C=C\CCCC)c3c12 [Fatimahol] | – | 25 µM and 24.7 µM | 23 ± 1.5 | 16 ± 1.1 | 1.8 | not significant
